Test results: patent US8906925B2, “Pyrido[4,3-B]indoles containing rigid moieties” (Medivation Technologies, Inc., priority 2008, dated 2014)

How the values were obtained:
histamine receptor H1 [1] = target: T1, histamine receptor H1 (Homo sapiens, UniProt P35367); assay: Inhibition of binding of a ligand (Pyrilamine) to histamine receptor H1; conditions: as compared to the unsubstituted vinyl counterpart (106 vs compound 415; 85 vs compound 95)
Method: The number and extent of undesirable side effects increases with increasing affinity for the H1 receptor Thus, in one aspect, compounds of the formulae herein display reduced, low or no affinity to histamine receptor H1. […] Inhibition of binding of a ligand to H1 for all variations detailed herein is determined by a suitable assay known in the art such as the assay described herein. […] In one variation, compounds of the formulae herein inhibit binding of a ligand to H1 by between about 50% to about 80%. […] In one variation, compounds of the formulae herein inhibit binding of Pyrilamine to H1 as determined in the assay described herein. In a further variation, percent inhibition of binding to H1 is measured by assays detailed herein.
The binding properties of compounds disclosed herein to a panel of aminergic G protein-coupled receptors including adrenergic receptors, dopamine receptors, serotonin receptors, histamine receptors and an imidazoline receptor may be determined. Binding properties may be assessed by methods known in the art, such as competitive binding assays. In one variation, compounds are assessed by the binding assays detailed herein. […]
In one aspect, DDT compounds display low affinity to histamine receptor H1. […] Inhibition of binding of a ligand to H1 for all variations detailed herein is determined by a suitable assay known in the art such as the assay described herein. […]

histamine receptor H1 [2] = target: T1, histamine receptor H1; assay: Histamine H1 radioligand binding ([3H]Pyrilamine)
How it was run: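 Values are percent inhibition of specific [3H]pyrilamine (1.2 nM) binding with compounds at ≤1 μM (1% DMSO vehicle); 180 min incubation at 25 °C, pH 7.4 Tris buffer, on CHO-expressed human H1 receptor; 1 μM pyrilamine defined nonspecific binding, bound ligand counted after filtration.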

[3] = target: human dopamine D2L receptor (Homo sapiens, UniProt P14416); assay: Dopamine D2L radioligand binding ([3H]Spiperone); conditions: percent inhibition of specific binding, compound at 1 μM
Sequence of human dopamine D2L receptor (P14416 whole entry): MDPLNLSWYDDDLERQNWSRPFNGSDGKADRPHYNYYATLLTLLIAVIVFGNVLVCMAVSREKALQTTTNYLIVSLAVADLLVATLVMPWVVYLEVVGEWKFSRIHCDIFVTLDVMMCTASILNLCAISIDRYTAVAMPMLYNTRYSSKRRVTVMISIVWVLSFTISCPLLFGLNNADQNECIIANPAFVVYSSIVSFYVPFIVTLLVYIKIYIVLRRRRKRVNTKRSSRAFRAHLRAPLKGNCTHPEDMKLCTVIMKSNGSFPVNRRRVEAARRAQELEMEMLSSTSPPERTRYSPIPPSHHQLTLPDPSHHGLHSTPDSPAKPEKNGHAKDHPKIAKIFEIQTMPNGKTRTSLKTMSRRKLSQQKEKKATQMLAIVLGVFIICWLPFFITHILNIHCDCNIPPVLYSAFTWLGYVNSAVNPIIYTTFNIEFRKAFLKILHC
Excerpt: Non-specific binding was estimated in the presence of […] Haloperidol. Receptor proteins were filtered and washed, the filters were then counted to determine [^3H]Spiperone specifically bound. […] Biochemical assay results are presented as the percent inhibition of specific binding in Table 9.

[4] = target: T2, human recombinant serotonin (5-Hydroxytryptamine) 5-HT2A receptor (Homo sapiens, UniProt P28223); assay: Serotonin 5-HT2A radioligand binding ([3H]Ketanserin)
T2 construct: expressed in transfected cells; host or cells: Chinese hamster ovary (CHO-K1) cells
T2 sequence (P28223 whole entry): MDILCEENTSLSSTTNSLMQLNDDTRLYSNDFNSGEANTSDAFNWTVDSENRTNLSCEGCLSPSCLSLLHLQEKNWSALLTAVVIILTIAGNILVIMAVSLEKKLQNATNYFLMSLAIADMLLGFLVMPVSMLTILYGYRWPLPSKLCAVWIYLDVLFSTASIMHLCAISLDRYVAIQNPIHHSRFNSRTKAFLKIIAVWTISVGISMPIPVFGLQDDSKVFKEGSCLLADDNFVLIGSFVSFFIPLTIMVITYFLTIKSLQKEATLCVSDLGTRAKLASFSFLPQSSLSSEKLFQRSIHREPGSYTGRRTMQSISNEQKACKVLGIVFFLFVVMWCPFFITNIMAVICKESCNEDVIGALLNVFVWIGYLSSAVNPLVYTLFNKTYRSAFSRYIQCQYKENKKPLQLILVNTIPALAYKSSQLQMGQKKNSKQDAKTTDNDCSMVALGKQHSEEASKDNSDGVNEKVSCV
Method: Compounds of the invention were incubated with 0.5 nM [^3H]Ketanserin for 60 min. at 25° C. Non-specific binding was estimated in the presence of 1 μM Mianserin. Receptor proteins were filtered and washed, the filters were then counted to determine [^3H]Ketanserin specifically bound.

[5] = target: T3, human recombinant serotonin (5-Hydroxytryptamine) 5-HT2C receptor (Homo sapiens, UniProt P28335); assay: Serotonin 5-HT2C radioligand binding ([3H]Mesulergine); conditions: compound at 0.1 μM; read-out: Inhibition of ligand binding, Serotonin 5-HT2C (percent inhibition of specific binding)
T3 construct: expressed in transfected cells; host or cells: Chinese hamster ovary (CHO-K1) cells
T3 sequence (P28335 33-458): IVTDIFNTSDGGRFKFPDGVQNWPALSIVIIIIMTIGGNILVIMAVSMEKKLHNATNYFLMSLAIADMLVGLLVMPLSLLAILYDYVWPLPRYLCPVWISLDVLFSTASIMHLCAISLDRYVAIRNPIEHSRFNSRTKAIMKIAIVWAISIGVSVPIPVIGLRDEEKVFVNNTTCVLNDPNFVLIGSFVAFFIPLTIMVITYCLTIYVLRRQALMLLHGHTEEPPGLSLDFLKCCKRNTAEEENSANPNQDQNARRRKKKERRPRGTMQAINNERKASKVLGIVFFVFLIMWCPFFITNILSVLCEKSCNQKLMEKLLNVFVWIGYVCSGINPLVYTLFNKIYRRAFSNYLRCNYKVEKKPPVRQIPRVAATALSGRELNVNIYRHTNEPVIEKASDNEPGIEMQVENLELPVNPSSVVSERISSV
How it was run: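 Compounds tested at 1 μM or lower (1% DMSO vehicle) for displacement of 1 nM [3H]Mesulergine over 60 min at 25° C. Specific binding determined by filtration counting, with 1 μM Mianserin defining non-specific binding; values are percent inhibition.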

[6] = target: T4, human recombinant serotonin (5-Hydroxytryptamine) 5-HT6 receptor (Homo sapiens, UniProt P50406); assay: Serotonin 5-HT6 radioligand binding ([3H]LSD)
T4 construct: expressed in transfected cells; host or cells: human HeLa cells
T4 sequence (P50406 whole entry): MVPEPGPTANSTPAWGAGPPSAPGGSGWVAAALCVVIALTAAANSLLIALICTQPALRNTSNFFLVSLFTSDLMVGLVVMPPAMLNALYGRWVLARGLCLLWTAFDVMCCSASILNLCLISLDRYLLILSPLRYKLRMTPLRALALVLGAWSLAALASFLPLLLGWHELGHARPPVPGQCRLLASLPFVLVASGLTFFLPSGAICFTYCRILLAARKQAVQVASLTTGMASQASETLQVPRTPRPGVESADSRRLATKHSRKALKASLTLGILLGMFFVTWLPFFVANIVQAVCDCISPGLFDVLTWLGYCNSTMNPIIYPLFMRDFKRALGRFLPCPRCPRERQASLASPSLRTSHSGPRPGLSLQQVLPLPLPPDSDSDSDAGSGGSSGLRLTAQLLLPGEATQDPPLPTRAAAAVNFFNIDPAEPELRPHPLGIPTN
Method: Compounds of the invention were incubated with 1.5 nM [3H]Lysergic acid diethylamide (LSD) for 120 min. at 37° C. […] Receptor proteins were filtered and washed, the filters were then counted to determine [3H]LSD specifically bound. Compounds were screened at 1 μM or lower, using 1% DMSO as vehicle. Biochemical assay results are presented as the percent inhibition of specific binding in Table 10.

male Wistar rat = assay: Conditioned avoidance response (CAR) model; format: in vivo; conditions: 0.3 mg/kg, s.c.
Method: All currently approved antipsychotic agents (typical and atypical) are known to have the ability to selectively suppress conditioned avoidance response (CAR) behavior in the rat. This evidence makes CAR one of the primary tests to assess antipsychotic activity of novel compounds.
The effects of Compound Nos. 83, 88 and 90, at concentrations including 0.1, 0.3, 1, 3, 10 and 20 mg/kg, p.o., in the conditioned avoidance response model were assessed in the male Wistar rat. Risperidone (0.3 mg/kg, s.c.) was used in the present study as a positive reference compound.
For each testing session, animals were first placed for a 4-min. habituation period in a shuttlebox with an electrified grid floor. Then, rats were submitted to 30 trials spaced by intertribal intervals varying at random between 20 and 30 sec. Each trial consisted of a 10-sec. light stimulus (conditioned stimulus, CS) followed by a 10-sec. electric foot shock (unconditioned stimulus, US) in presence of the light presented in the compartment where the rat is located. If the animal moved to the other compartment during the initial 10-sec. of the trial, the light was terminated (no shock was delivered) and the response was recorded as an avoidance response. If the rat changed compartment during the foot shock, the light and the shock were terminated and the response was recorded as an unconditioned response. […] If a response was made during an intertrial interval, the response was recorded as an intertrial crossing. Training was performed 5 days per week with one session of 30 trials per day, until rats reached the performance criterion of 80% of avoidance response on at least two consecutive daily sessions. […] A minimal wash-out period of 48 hours was allowed between 2 treatments. During the wash-out period, animals were trained until they recovered an avoidance performance of at least 80%.
Statistical analysis was performed using a Friedman two-way ANOVA by ranks followed by the Wilcoxon matched-pairs signed-ranks test to test each dose of the test compound administered versus vehicle control treated rats.

T1 sequence (P35367 whole entry): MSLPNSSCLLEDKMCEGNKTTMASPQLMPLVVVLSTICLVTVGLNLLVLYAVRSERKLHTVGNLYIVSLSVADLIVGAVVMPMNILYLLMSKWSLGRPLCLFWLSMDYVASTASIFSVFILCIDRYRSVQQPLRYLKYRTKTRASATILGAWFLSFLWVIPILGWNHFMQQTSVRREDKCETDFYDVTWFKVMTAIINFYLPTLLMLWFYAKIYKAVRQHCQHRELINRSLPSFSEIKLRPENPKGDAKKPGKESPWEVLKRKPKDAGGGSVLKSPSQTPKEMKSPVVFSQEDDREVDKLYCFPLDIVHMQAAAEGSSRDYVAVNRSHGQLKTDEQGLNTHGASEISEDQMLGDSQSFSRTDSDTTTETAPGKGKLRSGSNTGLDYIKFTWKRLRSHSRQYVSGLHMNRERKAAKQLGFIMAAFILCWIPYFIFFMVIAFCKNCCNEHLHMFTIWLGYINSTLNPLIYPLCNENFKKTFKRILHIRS

## C/C(=C\n1c2c(c3cc(C)ccc31)CN(C)CC2)c1ccc(C)nc1 [compound 85, (E)-2,3,4,5-tetrahydro-2,8-dimethyl-5-(2-(6-methylpyridin-3-yl)prop-1-enyl)-1H-pyrido[4,3-b]indole]
Histamine receptor H1 [1]
  binding affinity to H1: lower binding affinity to H1
Histamine receptor H1 [2]; 1 μM
  Histamine Binding (1 μM) H1, percent inhibition of specific binding: 13%
Histamine receptor H1 [2]; read-out: Histamine Binding (1 μM) H1, percent inhibition of specific binding, 1 μM
  inhibition at 1 µM: 9%
[3]; 1 µM
  Inhibition of ligand binding, Dopamine D2L: 57%
[3]; read-out: Inhibition of ligand binding, Dopamine D2L
  inhibition at 1 µM: 43%
[4]; compound at 0.1 μM, 0.1 µM
  Inhibition of ligand binding, Serotonin 5-HT2A (percent inhibition of specific binding): 98%
[4]; read-out: Inhibition of ligand binding, Serotonin 5-HT2A (percent inhibition of specific binding), compound at 0.1 μM
  inhibition at 0.1 µM: 88%
[5]
  inhibition at 0.1 µM: 92%
[6]; compound at 0.1 μM, 0.1 µM
  Inhibition of ligand binding, Serotonin 5-HT6 (percent inhibition of specific binding): 19%
[6]; compound at 0.1 μM, read-out: Inhibition of ligand binding, Serotonin 5-HT6 (percent inhibition of specific binding)
  inhibition at 0.1 µM: 22%
[6]; compound at 1 μM, read-out: Inhibition of ligand binding, Serotonin 5-HT6 (percent inhibition of specific binding)
  inhibition at 1 µM: 68%

## Cc1nc2n(c(=O)c1CCN1CCC(c3noc4cc(F)ccc34)CC1)CCCC2 [risperidone, reference compound]
Male Wistar rat
  number of avoidance responses, change versus pretreatment: −61%
  number of intertrial crossings, change versus pretreatment: −69%
Male Wistar rat; increased in 7/12 animals, 0±0 before treatment
  number of escape failures: 4±1 escape failures
